Measured values published in publication PMC9505734, “Design, Synthesis, and Evaluation of a Set of Carboxylic Acid and Phosphate Prodrugs Derived from HBV Capsid Protein Allosteric Modulator NVR 3-778” (Molecules, 2022).
In brackets after ≈: the same amount, converted by molar mass. Structures can show the parent of a compound that is named as a salt. Where two headings read alike, the source gives them in different places.

Assays:
[1] = tested on: HBV replication in Hep38.7-Tet cells; experiment: In vitro anti-HBV assay: inhibition of HBV replication (HBV DNA in culture supernatant, real-time PCR); format: cell-based, Hepatitis B virus; details: for EC50: Hepatitis B virus, 144 h, 6 days treatment, read-out: EC50: the concentration of 50% inhibition for HBV DNA in Hep38.7-Tet cells supernatant
Protocol: (§1) The target compounds N5-N8 were evaluated for their antiviral potency against HBV replication, as well as cytotoxicity in Hep38.7-Tet cells, which reproduces HBV replication from a chromosome-integrated HBV transgene under depletion of tetracycline from the medium. The 50% effective concentration (EC50) for anti-HBV activity, 50% cytotoxic concentration (CC50), and selectivity index (SI) calculated by CC50/EC50 ratio are shown in Table 1.
Hep38.7-Tet cells were cultured with DMEM/F-12/GlutaMAX supplemented with 10% fetal bovine serum, and 10 mM HEPES, 200 unit/mL penicillin, 200 µg/mL streptomycin, 5 µg/mL insulin, and 400 ng/mL tetracycline were added at 37 °C in 5% CO2. Tetracycline was removed when inducing HBV replication. Three days after seeding the cells, the cells were treated with or without compounds for 6 days and the culture supernatants were recovered to quantify HBV DNA using the primers 5′-[…]-3′, 5′-[…]-3′, and a probe 5′-FAM-[…]-TAMRA-3′ by real-time fluorescence quantitative PCR, as described.

[2] = Cytotoxicity assay (WST, Cell Counting Kit-8); format: cell-based; details: human, Hep38.7-Tet cells, WST method (CCK-8); read-out: CC50: the concentration that kills 50% of Hep38.7-Tet cells
Protocol: as §1
(§2) The WST assays were performed by using Cell Counting Kit-8 (CCK-8) (DOJINDO) according to the manufacturer’s protocol. CCK-8 solution was added to the cells, which were incubated at 37 °C for 15 min and the absorbance at 450 nm was measured.

[3] = Water solubility test in phosphate buffers (HPLC); format: physicochemical; details: for solubility at 1 h: aqueous buffer
Protocol: The compound was dissolved in DMSO to prepare the mother liquor with a concentration of 10 mg/mL, and then 10 µL mother liquor was added to 1 mL phosphate buffer with different pH (pH = 2.0, 7.0, and 7.4). The solution was oscillated for 2 h at 3000 rpm of the vortex oscillator, and the precipitation of compounds was observed visually. The standard curve can be established by increasing the concentration of mother liquor until turbidity appears. The peak area (A) of different concentrations (c) was determined by HPLC. The standard curve was established with the concentration and peak area as abscissa and ordinate, respectively, and the standard curve equation A = kc + b was calculated. The standard curve of NVR 3-778 concentration–peak area was established by measuring the peak area at five concentrations of 1000, 200, 40, 8.0, and 1.6 µg/mL. The standard curve equation was A = 35,268c + 80,359 with R^2 = 0.9999. By measuring the peak area at 4000 µg/mL, 1000 µg/mL, 200 µg/mL, 40 µg/mL, and 8.0 µg/mL, the standard curve of N6 concentration–peak area was established: A = 16,303c + 714,762, R^2 = 0.999. Since the solubility of N6 in phosphate buffer solution (pH = 7.0, 7.4) had exceeded the detector range, the saturated solution of N6 was diluted 10 times for testing. On this basis, the saturated solution (pH = 2.0, 7.0, and 7.4) of phosphate buffer at different pH values was prepared and fully oscillated for 1 h before filtration. Finally, the absorption peak area of the sample at different pH phosphate buffer (pH = 2.0, 7.0, and 7.4) was determined (measured twice). According to the standard curve equation, the corresponding concentration was calculated, which was the solubility of the compound.

Plasma stability at 4 °C = format: in vitro ADME; details: rat plasma, 2 µM; for Plasma (4 °C) Residual: after 2 h
Protocol: (§3) In order to verify the stability of prodrug in vitro, the stability of NVR 3-778 and prodrug N6 in plasma at 4 °C and whole blood at 37 °C was tested by the LC-MS/MS and characterization of their stability by peak area. […] A total of 1 mL of rat plasma was placed in ice water at 4 °C and 1 mL of rat whole blood was placed in a water bath at 37 °C for use, respectively. DMSO solution with compound concentration of 1 mM was prepared, and then 10 µL compound solution was added to 90 μL 45% methanol aqueous solution to obtain a quantitative solution with a concentration of 100 µM. A 2 µL compound solution was added to 98 µL 4 °C plasma and 37 °C whole blood, and three portions were prepared to reach the final concentration of 2 µM, respectively. After incubation for two hours, 400 µL termination solution was added. The samples were centrifuged at 4000 rpm for 10 min, and the supernatant was extracted. A total of 100 µL supernatant was mixed with 200 µL ultrapure water and fully shaken for 10 min. The absorption peak area (A) of the sample to be tested was determined by HPLC.

[4] = Whole blood stability at 37 °C; format: in vitro ADME; details: rat whole blood, 2 µM; for Whole Blood (37 °C) Residual: after 2 h
Protocol: as §3

[5] = Pharmacokinetic experiment after oral administration in rats; format: in vivo, SD rats; details: for MRT last: read-out: MRT0-last
Protocol: In order to explore the metabolism and bioavailability of prodrug in vivo after oral administration, the main pharmacokinetic parameters were tested. After oral administration of N6 and NVR 3-778 to the two groups of rats, we detected their plasma concentration, respectively. […] The experimental results confirmed that N6 had longer half-life and lower maximum concentration in vivo than NVR 3-778. In addition, N6 was completely transformed into NVR 3-778 in vivo, and both had favorable bioavailability. Compared with NVR3-778, N6 can release drugs more slowly, which can improve the narrow therapeutic window of NVR3-778 to some extent.
Six male SD rats were randomly divided into two groups (administered with N6 and NVR 3-778, respectively). The rats were fasted for 12 h before administration and had free access to water. Animal feed was given 4 h after administration. Compounds N6 and NVR 3-778 were both administered orally at a dose of 10 mg/kg. The corresponding doses of compounds were dissolved in DMSO/PEG400/water (3%/60%/37%, V/V/V) mixed solution to prepare compound oral solutions, respectively, which were filtered through the […]. After intragastric administration, blood was obtained by jugular vein puncture (blood point: before administration and 0.25 h, 0.5 h, 1 h, 2 h, 4 h, 6 h, 10 h, and 24 h after administration). Then 0.25 mL whole blood was collected from each rat at each time point, adding EDTA-K2 for anticoagulation. After collection, the plasma was centrifuged within 1 h (centrifugal condition: 8000 rpm, 5 min, 8 °C). Plasma samples were stored in a refrigerator before analysis. After the experiment, all rats were executed according to the regulations of the Experimental Animal Ethics Committee.

Hep38.7-Tet cells = experiment: Cytotoxicity assay (WST, Cell Counting Kit-8); format: cell-based
Protocol: as §1, §2

HepG2.2.15 cell line = details: read-out: EC50, antiviral activity; cited from earlier work
[6] = set-up: method as in PMID 35268440; details: pH = 2.0 ref 16; cited from earlier work
[7] = male, SD, analyte N6 in plasma after oral N6, 10 mg/kg (18.8 nmol/kg), rat
[8] = male, SD, plasma, 10 mg/kg, analyte NVR 3-778 after oral NVR 3-778, rat

## O=C(Nc1cc(F)c(F)c(F)c1)c1ccc(F)c(S(=O)(=O)N2CCC(OP(=O)(O)O)CC2)c1 (as salt: phosphate) [N5, 1-((2-Fluoro-5-((3,4,5-trifluorophenyl)carbamoyl)phenyl)sulfonyl)piperidin-4-yl Dihydrogen Phosphate]
other
  melting point: 162 to 164 °C

## O=C(Nc1cc(F)c(F)c(F)c1)c1ccc(F)c(S(=O)(=O)N2CCC(OP(=O)(O)O)CC2)c1 [N5, 1-((2-Fluoro-5-((3,4,5-trifluorophenyl)carbamoyl)phenyl)sulfonyl)piperidin-4-yl Dihydrogen Phosphate]
[1]
  SI: selectivity index, the ratio of CC50/EC50: 33
  EC50: 420 ± 69 nM
[2]
  CC50: 13700 ± 1450 nM

## O=C(O)CCC(=O)OC1CCN(S(=O)(=O)c2cc(C(=O)Nc3cc(F)c(F)c(F)c3)ccc2F)CC1 [N6, 4-((1-((2-fluoro-5-((3,4,5-trifluorophenyl)carbamoyl)phenyl)sulfonyl)piperidin-4-yl)oxy)-4-oxobutanoic acid]
other
  melting point: 138 to 140 °C
[3]; phosphate buffer pH = 2.0
  solubility at 1 h: 695 µg/mL (≈ 1310 µM)
[3]; phosphate buffer pH = 7.0
  solubility at 1 h: 7500 µg/mL (≈ 14100 µM)
[3]; phosphate buffer pH = 7.4
  solubility at 1 h: 4420 µg/mL (≈ 8290 µM)
[3]; pH = 2
  water solubility compared with NVR 3-778: more than 180 times
[3]; pH = 7
  water solubility compared with NVR 3-778: > 310 times
[3]; pH = 7.4
  water solubility compared with NVR 3-778: > 900 times
[1]
  SI: selectivity index, the ratio of CC50/EC50: 36
  EC50: 350 ± 48 nM
Plasma stability at 4 °C
  Plasma (4 °C) 0 h (peak area): 0.88 ± 0.052
  Plasma (4 °C) 2 h (peak area): 0.89 ± 0.016
  Plasma (4 °C) Residual: 101%
[4]
  Whole Blood (37 °C) 0 h (peak area): 0.65 ± 0.048
  Whole Blood (37 °C) 2 h (peak area): 0.70 ± 0.026
  Whole Blood (37 °C) Residual: 108%
[5]; analyte N6 in plasma after oral N6, 10 mg/kg (18.8 nmol/kg), rat
  Tlast: 1.00 h
[5]; [7]
  AUC(0-t): 8.13 ± 1.5 ng·h/mL
  Cmax: 14.7 ± 1.31 ng/mL
  Tmax: 0.25 h
  MRT last: 0.487 h
[5]; rats, oral N6 10 mg/kg
  time for complete conversion of N6 into NVR 3-778: ≤ 2 h
[2]
  CC50: 12600 ± 1050 nM

## O=C(O)CCCC(=O)OC1CCN(S(=O)(=O)c2cc(C(=O)Nc3cc(F)c(F)c(F)c3)ccc2F)CC1 [N7, 5-((1-((2-fluoro-5-((3,4,5-trifluorophenyl)carbamoyl)phenyl)sulfonyl)piperidin-4-yl)oxy)-5-oxopentanoic acid]
other
  melting point: 135 to 137 °C
[1]
  SI: selectivity index, the ratio of CC50/EC50: 46
  EC50: 280 ± 24 nM
[2]
  CC50: 13000 ± 1740 nM

## O=C(O)CCCCC(=O)OC1CCN(S(=O)(=O)c2cc(C(=O)Nc3cc(F)c(F)c(F)c3)ccc2F)CC1 [N8, 6-((1-((2-fluoro-5-((3,4,5-trifluorophenyl)carbamoyl)phenyl)sulfonyl)piperidin-4-yl)oxy)-6-oxohexanoic acid]
other
  melting point: 132 to 134 °C
[1]
  SI: selectivity index, the ratio of CC50/EC50: >731
  EC50: 350 ± 32 nM
[2]
  CC50: > 256000 nM
Hep38.7-Tet cells; CC50 in Hep38.7-Tet cells
  reduction of toxicity compared with NVR 3-778: at least 18 fold

## O=C(Nc1cc(F)c(F)c(F)c1)c1ccc(F)c(S(=O)(=O)N2CCC(O)CC2)c1 [NVR 3-778, 4-Fluoro-3-((4-hydroxypiperidin-1-yl)sulfonyl)-N-(3,4,5-trifluorophenyl)benzamide]
HepG2.2.15 cell line
  EC50: 400 nM
[6]
  water solubility: 3 µg/mL (≈ 6.94 µM)
[3]; phosphate buffer pH = 2.0
  solubility at 1 h: 3.82 µg/mL (≈ 8.83 µM)
[3]; phosphate buffer pH = 7.0
  solubility at 1 h: 24 µg/mL (≈ 55.6 µM)
[3]; phosphate buffer pH = 7.4
  solubility at 1 h: 4.84 µg/mL (≈ 11.2 µM)
[1]
  SI: selectivity index, the ratio of CC50/EC50: 36
  EC50: 380 ± 47 nM
Plasma stability at 4 °C
  Plasma (4 °C) 0 h (peak area): 0.12 ± 0.0078
  Plasma (4 °C) 2 h (peak area): 0.10 ± 0.0066
  Plasma (4 °C) Residual: 85%
[4]
  Whole Blood (37 °C) 0 h (peak area): 0.18 ± 0.016
  Whole Blood (37 °C) 2 h (peak area): 0.16 ± 0.0026
  Whole Blood (37 °C) Residual: 91%
[5]; analyte NVR 3-778 after oral NVR 3-778, 10 mg/kg (23.1 nmol/kg), rat
  Tlast: 10.0 h
[5]; [8]
  AUC(0-inf): 3940 ± 948 ng·h/mL
  AUC(0-t): 3890 ± 948 ng·h/mL
  Cmax: 1160 ± 261 ng/mL
  Tmax: 0.833 ± 0.289 h
  MRT last: 2.67 ± 0.106 h
[5]; male, SD, plasma, 10 mg/kg, analyte NVR 3-778 after oral NVR 3-778, rat, read-out: MRT0-inf
  MRT inf: 2.78 ± 0.144 h
[5]; male, SD, plasma, analyte NVR 3-778 after oral NVR 3-778, 10 mg/kg (23.1 nmol/kg), rat
  half-life: 1.4 ± 0.25 h
[2]
  CC50: 12600 ± 210 nM
Hep38.7-Tet cells; WST method (CCK-8), read-out: CC50: the concentration that kills 50% of Hep38.7-Tet cells
  CC50: 13600 ± 210 nM
